Common to all, as to test: FDH-coupled fluorescent demethylase assay, initial velocities, Hill fit
Common to all, as to assay type: biochemical

One assay addresses T1, Gis1 (Saccharomyces cerevisiae, UniProt Q03833).
T1 construct: full-length, N-terminal Strep(II) tag (pET51b+), expressed in E. coli BL21 Star (DE3), codon-optimized
T1 sequence (Q03833 1-894): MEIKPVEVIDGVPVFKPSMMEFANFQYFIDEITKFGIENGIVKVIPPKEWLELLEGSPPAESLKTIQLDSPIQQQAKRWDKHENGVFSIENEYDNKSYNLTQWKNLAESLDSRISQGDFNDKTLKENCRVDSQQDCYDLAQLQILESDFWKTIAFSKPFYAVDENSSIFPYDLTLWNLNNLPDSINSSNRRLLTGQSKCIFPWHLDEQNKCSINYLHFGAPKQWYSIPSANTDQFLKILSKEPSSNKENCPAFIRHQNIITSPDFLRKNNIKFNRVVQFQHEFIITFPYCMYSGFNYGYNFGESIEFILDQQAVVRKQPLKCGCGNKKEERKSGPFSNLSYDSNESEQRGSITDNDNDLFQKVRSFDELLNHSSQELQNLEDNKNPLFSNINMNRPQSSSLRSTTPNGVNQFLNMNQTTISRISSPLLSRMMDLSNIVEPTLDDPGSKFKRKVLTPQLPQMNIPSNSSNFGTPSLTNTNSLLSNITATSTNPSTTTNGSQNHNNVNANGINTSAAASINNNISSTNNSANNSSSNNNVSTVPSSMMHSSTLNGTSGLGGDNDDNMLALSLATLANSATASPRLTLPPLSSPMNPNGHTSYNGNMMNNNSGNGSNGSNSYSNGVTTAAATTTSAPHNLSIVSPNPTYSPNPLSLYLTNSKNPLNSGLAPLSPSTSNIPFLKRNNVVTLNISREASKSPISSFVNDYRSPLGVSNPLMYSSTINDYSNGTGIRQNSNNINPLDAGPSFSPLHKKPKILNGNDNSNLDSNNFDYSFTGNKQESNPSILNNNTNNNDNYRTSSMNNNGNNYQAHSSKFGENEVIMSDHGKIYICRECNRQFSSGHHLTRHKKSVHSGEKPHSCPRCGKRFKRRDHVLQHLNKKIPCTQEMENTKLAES

In a further assay the target is T2, Jhd1 (Saccharomyces cerevisiae, UniProt P40034).
T2 construct: full-length, N-terminal Strep(II) tag (pET51b+), expressed in E. coli BL21 Star (DE3), codon-optimized
T2 sequence (P40034 1-492): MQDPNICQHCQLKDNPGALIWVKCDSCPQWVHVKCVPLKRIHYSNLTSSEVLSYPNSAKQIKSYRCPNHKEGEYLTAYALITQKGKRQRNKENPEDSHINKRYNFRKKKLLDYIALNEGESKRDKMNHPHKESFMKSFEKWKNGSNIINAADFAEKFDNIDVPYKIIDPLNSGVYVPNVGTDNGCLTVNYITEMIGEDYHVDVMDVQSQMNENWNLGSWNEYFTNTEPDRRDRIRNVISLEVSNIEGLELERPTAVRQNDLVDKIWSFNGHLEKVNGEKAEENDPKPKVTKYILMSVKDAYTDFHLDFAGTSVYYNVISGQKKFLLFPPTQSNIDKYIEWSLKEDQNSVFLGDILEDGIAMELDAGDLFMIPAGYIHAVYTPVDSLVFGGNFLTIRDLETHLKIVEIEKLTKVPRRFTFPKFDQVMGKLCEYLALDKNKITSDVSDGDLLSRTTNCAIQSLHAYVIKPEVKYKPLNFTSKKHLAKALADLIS

The target in the next assay is T3, Rph1 (Saccharomyces cerevisiae, UniProt P39956).
T3 construct: full-length, N-terminal Strep(II) tag (pET51b+), expressed in E. coli BL21 Star (DE3), codon-optimized
T3 sequence (P39956 whole entry): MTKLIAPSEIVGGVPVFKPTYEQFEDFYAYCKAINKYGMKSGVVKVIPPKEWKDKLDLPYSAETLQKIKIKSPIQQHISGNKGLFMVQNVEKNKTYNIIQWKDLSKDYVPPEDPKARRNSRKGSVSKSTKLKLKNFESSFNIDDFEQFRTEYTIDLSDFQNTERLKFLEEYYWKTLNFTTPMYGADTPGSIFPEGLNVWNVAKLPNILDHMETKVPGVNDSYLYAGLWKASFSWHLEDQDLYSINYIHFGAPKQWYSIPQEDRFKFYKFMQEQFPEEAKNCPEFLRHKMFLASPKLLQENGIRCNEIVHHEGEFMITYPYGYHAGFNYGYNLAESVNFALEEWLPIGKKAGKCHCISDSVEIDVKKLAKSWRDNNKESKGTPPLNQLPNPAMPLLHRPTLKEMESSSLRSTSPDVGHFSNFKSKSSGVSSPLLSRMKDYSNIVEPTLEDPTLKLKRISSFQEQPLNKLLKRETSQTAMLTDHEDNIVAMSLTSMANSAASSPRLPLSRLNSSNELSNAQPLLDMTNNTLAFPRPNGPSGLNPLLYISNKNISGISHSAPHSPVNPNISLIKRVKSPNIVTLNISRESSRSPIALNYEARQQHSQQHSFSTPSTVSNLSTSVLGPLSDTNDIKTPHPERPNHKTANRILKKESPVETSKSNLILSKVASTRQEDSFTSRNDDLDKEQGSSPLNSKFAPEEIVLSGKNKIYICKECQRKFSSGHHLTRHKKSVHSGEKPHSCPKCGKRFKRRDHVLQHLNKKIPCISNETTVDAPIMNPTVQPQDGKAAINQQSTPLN

Another assay concerns the target T4, Jhd2 (Saccharomyces cerevisiae, UniProt P47156).
T4 construct: full-length, N-terminal Strep(II) tag (pET51b+), expressed in E. coli BL21 Star (DE3), codon-optimized
T4 sequence (P47156 1-728): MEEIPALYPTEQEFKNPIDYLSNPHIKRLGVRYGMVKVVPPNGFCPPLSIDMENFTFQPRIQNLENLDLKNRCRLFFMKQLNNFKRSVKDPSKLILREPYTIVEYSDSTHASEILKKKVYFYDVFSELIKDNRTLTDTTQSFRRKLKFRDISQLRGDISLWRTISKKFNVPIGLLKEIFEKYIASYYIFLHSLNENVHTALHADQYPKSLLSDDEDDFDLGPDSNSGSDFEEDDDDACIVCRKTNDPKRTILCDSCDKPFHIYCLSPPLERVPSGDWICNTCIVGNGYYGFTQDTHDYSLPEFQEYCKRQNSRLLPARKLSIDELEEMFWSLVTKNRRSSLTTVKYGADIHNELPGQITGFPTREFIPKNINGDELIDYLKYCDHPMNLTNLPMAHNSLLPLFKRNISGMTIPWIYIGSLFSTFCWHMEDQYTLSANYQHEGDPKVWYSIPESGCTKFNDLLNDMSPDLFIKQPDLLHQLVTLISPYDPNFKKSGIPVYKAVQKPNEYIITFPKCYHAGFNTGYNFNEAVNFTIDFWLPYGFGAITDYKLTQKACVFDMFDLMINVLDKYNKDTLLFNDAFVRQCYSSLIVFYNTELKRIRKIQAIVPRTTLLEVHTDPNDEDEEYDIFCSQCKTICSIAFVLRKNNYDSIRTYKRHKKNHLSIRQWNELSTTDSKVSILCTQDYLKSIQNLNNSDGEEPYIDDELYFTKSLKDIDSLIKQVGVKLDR

Structures are written as SMILES.

Broadly, the IC50 is the concentration that inhibits the measured activity by half. As to `O=C(O)CC[C@@H](O)C(=O)O` [2-HG], the IC50 at Gis1 is around 3100 µM; against Jhd1, around 2000 µM; against Rph1 it was around 1300 µM; at Jhd2, around 2200 µM.

The record behind these values is PMC10681907, “2-Hydroxyglutarate modulates histone methylation at specific loci and alters gene expression via Rph1 inhibition” (Life Science Alliance, 2023).
